The values below come from patent US20190150438A1, “CONFIGURATIONAL STEREOISOMER OF DIFETHIALONE, COMPOSITION AND RODENTICIDE BAIT COMPRISING SAME, AND METHOD FOR CONTROLLING TARGET RODENT PESTS” (priority 2015, published 2019).

A short description of this data set: Hepatic content in dead rats by high-pressure liquid chromatography on a chiral column. The data set is classed as in vivo, rat. As for the experimental part: About 0.525 g (±0.025 g) of rat liver is weighed out accurately and placed in a 50 mL polypropylene tube. 10 mL of acetone are added and the suspension is homogenized using an Ultra-Turrax® homogenizer/disperser for a time of about 30 seconds. The homogenizer/disperser shaft is rinsed with hot water and then twice with 20 mL of acetone in a polypropylene tube. The homogenate is centrifuged for 5 minutes at a centrifugation speed of 3000 rpm (revolutions per minute). The supernatant is collected and transferred into a test tube. The sample is subjected to evaporation under a stream of nitrogen (N2) at a temperature of 40° C. so as to form a dry extract.
1 mL of acetonitrile is added to the tube containing the dry extract so as to dissolve it. […]
The solution containing difethialone is analysed by high-pressure liquid chromatography on a LUX® Cellulose-3 chiral column (Phenomenex, Le Pecq, France) (150×2 mm, particle size of 3 μm) as described in point A2) above.
The measured values, expressed as micrograms of dextrorotatory enantiomer of said hetero-stereoisomer (“DFN-Hetero-dextro”) per gram of liver, are given in table 2 below.
The hepatic content of the dextrorotatory enantiomer of said hetero-stereoisomer of difethialone in each of the rats which die between D5 and D8 is measured by high-pressure liquid chromatography analysis on a chiral column. […]

Each structure is given as a SMILES string.

Consider `O=c1sc2ccccc2c(O)c1C1CC(c2ccc(-c3ccc(Br)cc3)cc2)Cc2ccccc21` (centres unmarked) [Total difethialone, 3-(4′-bromobiphenyl-4-yl)-1-(4-hydroxythiocoumarin-3-yl)-1,2,3,4-tetrahydronaphthalene], for which the “Hepatic content, mean” value runs as follows: (liver of rats which die between D5 and D8 after 10.6 ppm bait) 15.113 µg/g; (liver of rats which die between D9 and D13 after 3.7 ppm bait) 5.372 µg/g.
